These results are taken from patent US8017618B2, “Antifolate agent combinations in the treatment of cancer” (Tracon Pharmaceuticals, Inc., priority 2006, dated 2011).

The subject of data set [1] is H460 cells. Conditions: for formation of AP sites: pemetrexed 100, 200 and 400 μM, 24 hours, induction proportional to dose.
Method: To determine the effect of pemetrexed+methoxyamine (MX) compared to pemetrexed alone on the number of AP sites generated, an aldehyde reactive probe (ARP) reagent was used to measure AP sites formed by pemetrexed and blocked by MX. ARP and MX have a similar reactivity with AP sites, and react specifically with an aldehyde group, an open-ring form of the AP sites. […] H460 cells were treated with pemetrexed (0, 100, 200 or 400 μm) for 24 hours. DNA (15 μg) was then extracted from cells and incubated with 1 mM ARP at 37° C. for 10 min. DNA was precipitated and washed with ethanol, then resuspended in TE buffer (10 mM Tris-HCl, pH 7.2, 1 mM EDTA) and denatured at 100° C. for 5 min. The DNA was then quickly chilled on ice and mixed with an equal amount of ammonium acetate (2 M). Single-stranded DNA was then immobilized on a nitrocellulose membrane using a vacuum filter device. The membrane was incubated with streptavidin-conjugated horseradish peroxidase at room temperature for 30 min and rinsed with washing buffer (20 mM Tris-HCl, 1 mM EDTA, 0.26 M NaCl, 1% Tween-20). ARP-AP sites were visualized with ECL reagents (Amersham, Piscataway, N.J.). […] The effect of the combination of 200 μM pemetrexed and 6 mM MX was viewed at 24 hrs, 48 hrs and 72 hrs.
The nature of data set [2]: Oral and intravenous bioavailability study of MX via a single bolus administration to Sprague Dawley rats (plasma LC-MS/MS, noncompartmental PK). The class given is in vivo. As to the method:
Oral and Intravenous Bioavailability Study of MX Via a Single Bolus Administration to Sprague Dawley Rats (Non-GLP). The studies described below were performed to evaluate the bioavailability of methoxyamine (MX) at the safe dose level by comparison of the pharmacokinetic parameters after single bolus oral and intravenous administrations of MX
Test Animals. Thirty male and thirty female Sprague Dawley rats, 250-350 g, 7-10 weeks of age, were used during the study.
Dose Preparation and Concentration. One dose solution was prepared on the same day of dose administration, adjusted for the 98% purity of the test article, to achieve a concentration of 4.00 mg/mL “active” MX, 816.77 mg of MX was dissolved into 5% dextrose in a 200-mL volumetric flask. The prepared solution was equally divided into two amber bottles designated for either oral or IV administration. Aliquots were taken for analysis at preparation and after dosing, transported on dry ice and stored at <−70° C.
Dose Administration. All animals were weighed on the day of dose administration. Individual animal doses were based on this body weight. A constant dose volume of 5 mL/kg was used. IV doses were administered through a single bolus injection into the tail vein using a 3-mL syringe attached to a 26G×1″ needle. The IV dose was administered at a rate of approximately 2 mL/min. Oral doses were administered as a single bolus with an 18G×2″ feeding needle attached to a 3-mL syringe.
Blood Sample Collection. Blood samples were collected at 5, 15, 30 mins, and 1, 2, 4, 6, 8, 12 and 24 hrs post-dose, with collection at two time points for each animal. Blood samples were collected through the jugular vein for the earlier time point and through the abdominal vein at sacrifice for the later time point. The blood was transferred from the drawing syringe into a 2 mL blood collection tube containing K3-EDTA as the anticoagulant and inverted to mix. Abdominal vein blood collection was performed immediately following CO2 euthanasia.
Plasma Sample Preparation and Storage Conditions. The blood tube was placed on wet ice before centrifugation for plasma preparation. Whole blood samples were centrifuged at 3,000 rpm at 4° C., for 10 min. Plasma was pipetted into tubes and placed on dry ice initially and later stored at <−70° C.
Mass spectrometry (MS). Mass spectrometric detection was performed by electrospray ionization with positive turbo spray, according to the specifications listed below.
Plasma Sample for LC-MS/MS Analysis. Individual plasma samples were thawed at ambient temperature and 250 μL was aliquoted for analysis if a dilution was not needed. Samples taken at 5 min to 1 hr from IV dosed animals or 15 min to 8 hr from orally dosed animals required 5-to 40-fold dilution to fall in the linear range of the method (1 to 1,000 ng/mL). For the samples requiring dilution, an appropriate volume was taken and mixed with blank rat plasma containing the same anticoagulant to make a total volume of 250 μL. The quantitation results were corrected with the dilution factor. Plasma was prepared for LC-MS/MS analysis as follows: • Plasma aliquots were vortexed for 30 seconds, and centrifuged at 14,000 rpm for 10 min to precipitate the interfering particles. • A 100 μL aliquot was taken from the supernatant and placed into a 1.5 mL microcentrifuge tube. • To the 100 μL plasma aliquot, 310 μL of H2O: formic acid (2:1), 30 μL of acenocoumerol (IS) in H2O (10 μg/mL) and 100 μL of diethylaminobenzaldehyde in 2:1H2O: formic acid solution (10 mg/mL) were added and mixed well. • The mixture was then incubated in a water bath at 80° C. for 2 hrs. After incubation, the supernatant was transferred into a HPLC vial for LC-MS/MS quantitation.
Methoxyamine (MX) Pharmacokinetics and Bioavailability Analysis. Pharmacokinetics Analysis. […]

For data set [3], the system named is NCI-H460 tumors. The data set is described as follows: Tumors in nude mice: NCI-H460 NSCLC cell line model. The class given is in vivo, female athymic HSD nude mice. Conditions: MX 4 mg/kg with pemetrexed 150 mg/kg, five daily i.p. injections. Here is the method: (§1) Tumors in Nude Mice. […] Animals received five daily intraperitoneal injections of either saline, pemetrexed alone (150 mg/kg), MX alone (4 mg/kg), or a combination of pemetrexed (150 mg/kg) and MX (4 mg/kg) with a pemetrexed to MX ratio of […].

In data set [4] the test system is HCT116 tumors. The data set is described as follows: Tumors in nude mice: HCT116 colon cancer cell line model. The class given is in vivo, female athymic HSD nude mice. Conditions: MX 4 mg/kg with pemetrexed 150 mg/kg, five daily i.p. injections. Here is the method: as §1
Data set [5] relates to topoisomerase II. The data set is described as follows: Topoisomerase II-mediated DNA cleavage of AP or MX-AP site substrates. The settings on record: AP site at a topoisomerase II cleavage site, incubated with MX. In kind it is biochemical. As to the method:
Analysis of the effect of AP site or MX-AP site on topoisomerase II-mediated DNA cleavage. A position-specific apurinic site was incorporated by replacing a single nucleoside with deoxyuridine at a topoisomerase II cleavage site and then removing the uracil base with uracil-DNA glycosylase, generating AP sites that further are incubated with MX to produce MX-AP sites (FIG. 5A).
First, it was determined whether APE has a differential effect between regular AP sites and MX-AP sites located in a position specific site for topo II cleavage.

Where [6] appears, read: both sexes, Sprague-Dawley, rat, in vivo, po, 20 mg/kg.
Where [7] appears, read: female, Sprague-Dawley, rat, in vivo, 20 mg/kg.
Where [8] appears, read: female, Sprague-Dawley, rat, in vivo, iv, 20 mg/kg.
Where [9] appears, read: female, Sprague-Dawley, rat, in vivo, po, 20 mg/kg.
Setting [10] is: male, Sprague-Dawley, rat, in vivo, 20 mg/kg.
Where [11] appears, read: male, Sprague-Dawley, rat, in vivo, iv, 20 mg/kg.
Setting [12] is: male, Sprague-Dawley, rat, in vivo, po, 20 mg/kg.

Like-named read-outs stand apart in the source and are kept apart here.

Regarding `Nc1nc2[nH]cc(CCc3ccc(C(=O)N[C@@H](CCC(=O)O)C(=O)O)cc3)c2c(=O)[nH]1` [pemetrexed, 2-[4-[2-(4-amino-2-oxo-3,5,7-triazabicyclo[4.3.0]nona-3,8,10-trien-9-yl)ethyl]benzoyl]aminopentanedioic acid], the “number of detectable AP sites over time” value in data set [1] (200 μM pemetrexed, 6 mM MX, 24 hrs, 48 hrs and 72 hrs) is recorded as “number of detectable AP sites were reduced”. Also, the “formation of AP sites” value in data set [1] is given as “induces the formation of AP sites”; in data set [1] (listed as Pemetrexed), “induced the formation of AP sites”.
In general, half-life refers to the time in which the quantity being followed falls by half. A word on the Tmax: it is the time from dosing to the highest level. For orientation: bioavailability means dose-corrected exposure relative to a reference, in per cent. Low values mean poor availability, high ones good availability. For orientation: AUC(0-inf) means total exposure, with the tail of the curve extrapolated. Low readings indicate less exposure, high ones more exposure. By AUC(0-t) is commonly meant the area under the concentration-time curve up to a stated or last time point. The low end stands for low exposure, the high end for high exposure. The Cmax is the peak of the concentration-time curve. For the molecule `CON` [MX, Methoxyamine], the half-life in data set [2] (Sprague-Dawley, rat, in vivo, po) is more than 4 h; in data set [2] (both sexes, Sprague-Dawley, rat, in vivo), 4 to 6 h; in data set [2] (setting [8]), 4.6 h; in data set [2] (setting [9]) it was 5.7 h; in data set [2] (setting [11]), 5.2 h; in data set [2] (setting [12]), 4.2 h. Also, the “serum levels following oral dosing versus target Cmax associated with activity in mouse models of human cancer” value in data set [2] (Sprague-Dawley, rat, in vivo, po, 20 mg/kg) was more than 50 ng/mL. Also, the Tmax in data set [2] (setting [6]) was 0.5 to 1 h; in data set [2] (setting [8]), 0.08 h; in data set [2] (setting [9]), 0.5 h; in data set [2] (setting [11]), 0.08 h; in data set [2] (setting [12]) it was 1 h. In data set [2] (setting [6]), this molecule displayed a bioavailability of approximately 100%. Besides, the “Bioavailability (absolute, oral to IV AUC0-∞5 ratio)” value turned out to be 94% in data set [2] (setting [7]) and 110% in data set [2] (setting [10]). The F in data set [2] (setting [7]) is 0.94; in data set [2] (setting [10]), 1.1. For the same molecule, the “distribution phase complete (time postdose)” value in data set [2] (female, Sprague-Dawley, rat, in vivo, iv) is listed as “approximately 2 hrs”; in data set [2] (male, Sprague-Dawley, rat, in vivo, iv), “approximately 2 hrs”. In addition, the “AUC0-∞5 (AUC0-∞ normalized to a total dose amount of 5 mg MX)” value worked out at 13892 ng·h/mL in data set [2] (setting [8]), 11284 ng·h/mL in data set [2] (setting [11]) and 12420 ng·h/mL in data set [2] (setting [12]). Further, the AUC(0-inf) is 13100 ng·h/mL in data set [2] (setting [8]), 12000 ng·h/mL in data set [2] (setting [9]), 12700 ng·h/mL in data set [2] (setting [11]) and 13800 ng·h/mL in data set [2] (setting [12]). Moreover, the area under the curve AUC(0-t) amounted to 13000 ng·h/mL in data set [2] (setting [8]), 11600 ng·h/mL in data set [2] (setting [9]), 12500 ng·h/mL in data set [2] (setting [11]) and 13600 ng·h/mL in data set [2] (setting [12]). The highest concentration (Cmax) in data set [2] (setting [8]) was 11000 ng/mL; in data set [2] (setting [9]), 2960 ng/mL; in data set [2] (setting [11]), 15500 ng/mL; in data set [2] (setting [12]), 2200 ng/mL. Also, in data set [2] (rats, 20 mg/kg body weight intravenously or orally), the “clinical signs of toxicity” value is given as “no clinical signs of toxicity”. Also, the “reversal of resistance to pemetrexed chemotherapy” value in data set [3] and in data set [4] was “reversed resistance” each time. Moreover, the “topoisomerase II-mediated cleavage of MX-AP sites” value in data set [5] is “MX-AP sites are able to stimulate topoisomerase II-mediated DNA cleavage”.
